In brackets after ≈: the same amount, converted by molar mass. Each block holds one molecule with its values, some of them ahead of it. Activity calls are given as the source filed them. No cut-off for these calls is given here.
Legend:
[1] = molecular target: T1, Metabotropic glutamate receptor 4 (Homo sapiens, UniProt Q14833); assay: Positive allosteric modulation of human mGlu4 receptor expressed in BHK cells assessed as potentiation of glutamate-induced calcium mobilization by FLIPR analysis; assay type: functional, cell-based
[2] = molecular target: T1, Metabotropic glutamate receptor 4; assay: Positive allosteric modulation of human mGlu4 receptor expressed in BHK cells assessed as potentiation of glutamate-induced calcium mobilization by FLIPR analysis relative to PHCCC; assay type: functional, cell-based
CYP2B6 = molecular target: T2, CYP2B6 (Homo sapiens, UniProt P20813); assay: Inhibition of CYP2B6 at 5 uM; assay type: ADME
T2 sequence (P20813 whole entry): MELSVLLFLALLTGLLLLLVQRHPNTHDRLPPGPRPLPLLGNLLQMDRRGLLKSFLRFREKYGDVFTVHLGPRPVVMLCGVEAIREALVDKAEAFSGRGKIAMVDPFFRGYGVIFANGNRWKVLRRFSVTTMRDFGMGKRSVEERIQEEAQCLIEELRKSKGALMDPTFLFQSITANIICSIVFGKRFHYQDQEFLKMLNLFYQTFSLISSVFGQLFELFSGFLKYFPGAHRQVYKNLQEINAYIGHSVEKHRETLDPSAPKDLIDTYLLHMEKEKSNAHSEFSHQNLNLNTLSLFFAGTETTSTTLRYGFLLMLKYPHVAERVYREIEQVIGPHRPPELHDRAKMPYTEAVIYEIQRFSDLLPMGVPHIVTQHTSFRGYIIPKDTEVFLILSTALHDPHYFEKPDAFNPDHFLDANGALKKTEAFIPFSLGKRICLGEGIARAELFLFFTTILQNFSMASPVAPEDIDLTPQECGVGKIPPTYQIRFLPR

Cerebrospinal fluid [3] = assay: Drug uptake in rat CSF at 10 mg/kg, po; assay type: ADME, organism-based; set-up: dose 10 mg/kg, route oral; settings: in vivo
CYP2C9 = CYP2C9 (Homo sapiens, UniProt P11712); assay: Inhibition of CYP2C9 at 5 uM; assay type: ADME
CYP2C9, sequence (P11712 whole entry): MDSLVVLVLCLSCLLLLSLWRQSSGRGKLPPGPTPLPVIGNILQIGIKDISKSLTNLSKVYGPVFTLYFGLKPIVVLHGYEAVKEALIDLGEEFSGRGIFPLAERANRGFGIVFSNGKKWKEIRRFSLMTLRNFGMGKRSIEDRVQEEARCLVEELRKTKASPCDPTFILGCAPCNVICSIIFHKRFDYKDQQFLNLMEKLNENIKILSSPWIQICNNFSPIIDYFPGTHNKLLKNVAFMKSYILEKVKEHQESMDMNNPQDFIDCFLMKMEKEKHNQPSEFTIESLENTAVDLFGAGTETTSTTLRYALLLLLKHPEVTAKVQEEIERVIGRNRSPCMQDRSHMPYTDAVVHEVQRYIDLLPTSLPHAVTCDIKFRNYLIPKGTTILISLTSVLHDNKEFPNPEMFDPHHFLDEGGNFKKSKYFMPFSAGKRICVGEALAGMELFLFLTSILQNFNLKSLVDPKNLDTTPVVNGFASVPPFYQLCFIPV

Plasma [4] = assay: Plasma concentration in rat at 10 mg/kg, po; assay type: ADME, organism-based; set-up: dose 10 mg/kg, route oral; settings: in vivo
[5] = Plasma protein binding in rat; assay type: ADME, cell-free; settings: read-out: PPB (converted)
CYP3A4 = CYP3A4 (Homo sapiens, UniProt P08684); assay: Inhibition of CYP3A4 at 5 uM; assay type: ADME
CYP3A4, sequence (P08684 whole entry): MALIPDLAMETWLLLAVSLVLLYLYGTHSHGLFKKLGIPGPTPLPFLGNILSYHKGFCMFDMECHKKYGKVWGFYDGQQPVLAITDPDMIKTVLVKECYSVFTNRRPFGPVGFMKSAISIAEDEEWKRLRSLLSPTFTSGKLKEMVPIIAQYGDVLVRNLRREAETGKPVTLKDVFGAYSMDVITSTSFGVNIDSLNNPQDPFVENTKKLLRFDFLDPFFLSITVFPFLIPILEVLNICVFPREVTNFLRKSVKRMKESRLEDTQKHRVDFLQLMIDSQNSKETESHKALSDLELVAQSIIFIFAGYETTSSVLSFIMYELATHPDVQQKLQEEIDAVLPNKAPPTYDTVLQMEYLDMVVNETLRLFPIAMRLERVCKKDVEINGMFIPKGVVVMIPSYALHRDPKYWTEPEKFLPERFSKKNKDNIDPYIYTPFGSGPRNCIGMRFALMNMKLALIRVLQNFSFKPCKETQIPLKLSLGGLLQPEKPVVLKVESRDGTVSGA

[6] = Kinetic solubility of the compound at pH 7.4; assay type: physicochemical; settings: buffer, read-out: Kinetic_solubility
CYP2C19 = CYP2C19 (Homo sapiens, UniProt P33261); assay: Inhibition of CYP2C19 at 5 uM; assay type: ADME
Brain [7] = assay: Fraction unbound in rat brain; assay type: ADME, tissue-based
[8] = molecular target: T1, Metabotropic glutamate receptor 4; assay: Positive allosteric modulation of human mGlu4 receptor expressed in BHK cells assessed as fold shift in calcium mobilization by FLIPR analysis relative to glutamate; assay type: functional, cell-based
[9] = Ratio of drug level in brain to plasma in rat at 10 mg/kg, po; assay type: ADME, organism-based; set-up: dose 10 mg/kg, route oral; settings: read-out: BPR
Brain [10] = assay: Drug uptake in rat brain at 10 mg/kg, po; assay type: ADME, organism-based; set-up: dose 10 mg/kg, route oral; settings: in vivo
Rattus norvegicus = species on record: Rattus norvegicus; assay: Intrinsic clearance in rat; assay type: ADME, organism-based; settings: in vivo
[11] = Kinetic solubility of the compound at pH 4.0; assay type: physicochemical; settings: buffer, read-out: Kinetic_solubility
[12] = molecular target: Metabotropic glutamate receptor 2 (Homo sapiens) (UniProt Q14416); assay: Negative allosteric modulation of mGlu2 receptor at 10 uM
Metabotropic glutamate receptor 2 (Homo sapiens), sequence (Q14416 19-872 limits assumed): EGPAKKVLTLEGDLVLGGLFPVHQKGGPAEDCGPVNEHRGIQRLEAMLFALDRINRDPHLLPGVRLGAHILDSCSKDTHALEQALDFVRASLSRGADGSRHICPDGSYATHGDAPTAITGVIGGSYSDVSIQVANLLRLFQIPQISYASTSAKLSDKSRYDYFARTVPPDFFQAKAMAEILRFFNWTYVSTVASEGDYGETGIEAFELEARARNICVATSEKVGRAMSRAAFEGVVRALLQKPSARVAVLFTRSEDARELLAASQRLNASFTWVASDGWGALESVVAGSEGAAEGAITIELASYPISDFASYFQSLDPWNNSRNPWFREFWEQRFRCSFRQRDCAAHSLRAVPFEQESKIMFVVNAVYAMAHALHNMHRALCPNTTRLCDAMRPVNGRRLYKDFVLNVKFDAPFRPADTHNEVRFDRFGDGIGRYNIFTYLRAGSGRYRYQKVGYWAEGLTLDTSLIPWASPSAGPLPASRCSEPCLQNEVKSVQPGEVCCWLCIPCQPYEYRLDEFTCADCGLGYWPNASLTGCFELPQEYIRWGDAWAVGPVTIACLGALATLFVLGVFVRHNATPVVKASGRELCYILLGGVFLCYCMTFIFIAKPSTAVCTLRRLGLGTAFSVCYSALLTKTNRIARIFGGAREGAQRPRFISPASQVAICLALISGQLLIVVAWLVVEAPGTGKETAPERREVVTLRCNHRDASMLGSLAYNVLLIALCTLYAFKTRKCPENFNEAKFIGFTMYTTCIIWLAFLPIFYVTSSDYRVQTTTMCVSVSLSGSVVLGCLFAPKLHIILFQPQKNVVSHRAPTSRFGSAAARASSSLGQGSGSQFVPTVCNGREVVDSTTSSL

[13] = molecular target: Metabotropic glutamate receptor 6 (Homo sapiens) (UniProt O15303); assay: Agonist activity at mGlu6 receptor at 10 uM; assay type: functional
Metabotropic glutamate receptor 6 (Homo sapiens), sequence (O15303 whole entry): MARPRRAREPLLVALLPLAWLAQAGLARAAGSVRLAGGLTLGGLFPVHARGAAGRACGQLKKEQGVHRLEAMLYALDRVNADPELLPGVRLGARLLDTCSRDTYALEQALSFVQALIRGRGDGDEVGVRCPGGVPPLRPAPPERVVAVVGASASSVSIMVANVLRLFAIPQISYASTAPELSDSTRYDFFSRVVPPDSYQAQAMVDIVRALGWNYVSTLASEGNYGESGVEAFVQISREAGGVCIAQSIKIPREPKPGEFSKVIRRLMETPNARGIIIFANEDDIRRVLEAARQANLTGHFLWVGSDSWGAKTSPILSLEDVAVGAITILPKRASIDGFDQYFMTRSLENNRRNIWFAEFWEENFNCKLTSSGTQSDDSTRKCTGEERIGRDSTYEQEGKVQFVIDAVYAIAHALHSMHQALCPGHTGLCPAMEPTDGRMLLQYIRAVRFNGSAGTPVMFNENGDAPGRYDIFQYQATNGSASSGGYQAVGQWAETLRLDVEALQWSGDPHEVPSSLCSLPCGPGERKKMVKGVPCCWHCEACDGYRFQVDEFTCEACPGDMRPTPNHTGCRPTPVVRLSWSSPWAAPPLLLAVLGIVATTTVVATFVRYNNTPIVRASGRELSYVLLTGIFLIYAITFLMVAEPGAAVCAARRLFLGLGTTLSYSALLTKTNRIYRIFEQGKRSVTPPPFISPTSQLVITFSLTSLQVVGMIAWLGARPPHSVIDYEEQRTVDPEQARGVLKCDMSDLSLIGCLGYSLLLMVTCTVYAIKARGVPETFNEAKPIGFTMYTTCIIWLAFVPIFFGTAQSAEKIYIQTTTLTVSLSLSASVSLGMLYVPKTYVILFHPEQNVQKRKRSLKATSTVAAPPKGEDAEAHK

[14] = molecular target: Metabotropic glutamate receptor 6 (Homo sapiens) (UniProt O15303); assay: Positive allosteric modulation of mGlu6 receptor at 10 uM
Cerebrospinal fluid [15] = assay: Drug uptake in rat CSF at 30 mg/kg, sc; assay type: ADME, organism-based; set-up: dose 30 mg/kg, route subcutaneous; settings: in vivo
[16] = molecular target: Metabotropic glutamate receptor 7 (Homo sapiens) (UniProt Q14831); assay: Positive allosteric modulation of mGlu7 receptor at 10 uM
[17] = molecular target: Metabotropic glutamate receptor 5 (Homo sapiens) (UniProt P41594); assay: Negative allosteric modulation of mGlu5 receptor at 10 uM
Metabotropic glutamate receptor 5 (Homo sapiens), sequence (P41594 21-1212 limits assumed): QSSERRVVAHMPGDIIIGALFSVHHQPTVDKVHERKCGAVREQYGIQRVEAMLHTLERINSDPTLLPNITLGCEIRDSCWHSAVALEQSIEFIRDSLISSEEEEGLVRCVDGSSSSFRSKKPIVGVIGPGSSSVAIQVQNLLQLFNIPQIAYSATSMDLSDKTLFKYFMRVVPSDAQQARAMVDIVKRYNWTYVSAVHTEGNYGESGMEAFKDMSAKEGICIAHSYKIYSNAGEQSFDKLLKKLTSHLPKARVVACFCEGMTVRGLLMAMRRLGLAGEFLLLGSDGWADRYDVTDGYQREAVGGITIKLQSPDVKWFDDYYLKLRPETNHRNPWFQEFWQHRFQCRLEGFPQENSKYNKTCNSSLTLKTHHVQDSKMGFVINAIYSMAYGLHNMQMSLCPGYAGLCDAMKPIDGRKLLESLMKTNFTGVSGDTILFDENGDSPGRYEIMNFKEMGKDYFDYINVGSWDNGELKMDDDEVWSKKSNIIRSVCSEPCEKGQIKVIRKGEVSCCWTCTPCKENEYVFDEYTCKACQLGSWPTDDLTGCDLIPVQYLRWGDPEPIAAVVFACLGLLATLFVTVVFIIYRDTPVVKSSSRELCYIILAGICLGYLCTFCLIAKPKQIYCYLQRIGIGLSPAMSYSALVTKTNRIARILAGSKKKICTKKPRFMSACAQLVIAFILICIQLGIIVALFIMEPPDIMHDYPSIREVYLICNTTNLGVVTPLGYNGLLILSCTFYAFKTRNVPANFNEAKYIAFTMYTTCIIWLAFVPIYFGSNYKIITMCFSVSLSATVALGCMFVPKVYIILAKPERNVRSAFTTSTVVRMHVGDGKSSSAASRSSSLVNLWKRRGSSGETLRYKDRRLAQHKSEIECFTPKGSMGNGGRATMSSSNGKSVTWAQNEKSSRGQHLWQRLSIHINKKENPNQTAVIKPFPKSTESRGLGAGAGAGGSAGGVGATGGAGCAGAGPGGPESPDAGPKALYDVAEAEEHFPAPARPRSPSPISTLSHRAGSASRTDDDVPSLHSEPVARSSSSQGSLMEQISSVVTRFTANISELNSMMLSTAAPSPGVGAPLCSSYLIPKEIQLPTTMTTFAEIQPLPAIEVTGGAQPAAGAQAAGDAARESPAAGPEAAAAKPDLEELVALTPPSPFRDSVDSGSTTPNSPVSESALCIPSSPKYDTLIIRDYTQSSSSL

[18] = Ratio of drug level in brain to plasma in rat at 30 mg/kg, sc; assay type: ADME, organism-based; set-up: dose 30 mg/kg, route subcutaneous; settings: read-out: BPR
Brain [19] = assay: Drug uptake in rat brain at 30 mg/kg, sc; assay type: ADME, organism-based; set-up: dose 30 mg/kg, route subcutaneous; settings: in vivo
[20] = molecular target: Metabotropic glutamate receptor 8 (Homo sapiens) (UniProt O00222); assay: Negative allosteric modulation of mGlu8 receptor at 10 uM
Metabotropic glutamate receptor 8 (Homo sapiens), sequence (O00222 whole entry): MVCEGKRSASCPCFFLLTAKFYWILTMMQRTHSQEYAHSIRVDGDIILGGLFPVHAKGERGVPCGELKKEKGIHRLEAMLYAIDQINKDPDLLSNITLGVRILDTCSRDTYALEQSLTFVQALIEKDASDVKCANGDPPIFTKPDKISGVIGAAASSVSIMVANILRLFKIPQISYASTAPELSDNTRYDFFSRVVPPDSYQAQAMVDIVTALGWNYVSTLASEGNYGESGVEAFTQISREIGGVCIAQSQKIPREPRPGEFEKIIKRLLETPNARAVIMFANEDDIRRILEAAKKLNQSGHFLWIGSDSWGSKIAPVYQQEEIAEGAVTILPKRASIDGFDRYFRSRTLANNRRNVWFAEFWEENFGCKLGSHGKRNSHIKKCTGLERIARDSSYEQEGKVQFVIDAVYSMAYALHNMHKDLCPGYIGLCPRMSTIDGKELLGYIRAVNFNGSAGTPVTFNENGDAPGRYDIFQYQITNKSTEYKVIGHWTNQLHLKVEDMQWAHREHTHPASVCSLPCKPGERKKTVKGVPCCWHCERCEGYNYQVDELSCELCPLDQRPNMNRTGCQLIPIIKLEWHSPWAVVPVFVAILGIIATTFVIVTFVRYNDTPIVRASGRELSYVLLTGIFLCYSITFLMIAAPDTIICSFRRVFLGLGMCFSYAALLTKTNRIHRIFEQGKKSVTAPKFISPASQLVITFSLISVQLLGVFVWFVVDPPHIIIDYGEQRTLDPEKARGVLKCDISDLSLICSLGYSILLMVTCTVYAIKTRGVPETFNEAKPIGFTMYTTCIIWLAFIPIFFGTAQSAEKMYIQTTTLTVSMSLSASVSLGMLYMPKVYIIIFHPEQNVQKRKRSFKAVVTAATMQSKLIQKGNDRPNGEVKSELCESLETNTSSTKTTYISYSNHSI

[21] = Inhibition of benzodiazepine receptor
[22] = molecular target: Metabotropic glutamate receptor 1 (Homo sapiens) (UniProt Q13255); assay: Agonist activity at mGlu1 receptor at 10 uM; assay type: functional
[23] = molecular target: Metabotropic glutamate receptor 8 (Homo sapiens) (UniProt O00222); assay: Agonist activity at mGlu8 receptor at 10 uM; assay type: functional
[24] = molecular target: Metabotropic glutamate receptor 2 (Homo sapiens) (UniProt Q14416); assay: Positive allosteric modulation of mGlu2 receptor at 10 uM
[25] = molecular target: T3, Melatonin receptor type 1A (Homo sapiens, UniProt P48039); assay: Agonist activity at MT1; assay type: functional
[26] = molecular target: Metabotropic glutamate receptor 1 (Homo sapiens) (UniProt Q13255); assay: Negative allosteric modulation of mGlu1 receptor at 10 uM
[27] = molecular target: Metabotropic glutamate receptor 2 (Homo sapiens) (UniProt Q14416); assay: Agonist activity at mGlu2 receptor at 10 uM; assay type: functional
[28] = molecular target: Metabotropic glutamate receptor 7 (Homo sapiens) (UniProt Q14831); assay: Agonist activity at mGlu7 receptor at 10 uM; assay type: functional
[29] = molecular target: Metabotropic glutamate receptor 5 (Homo sapiens) (UniProt P41594); assay: Positive allosteric modulation of mGlu5 receptor at 10 uM
[30] = molecular target: Metabotropic glutamate receptor 6 (Homo sapiens) (UniProt O15303); assay: Negative allosteric modulation of mGlu6 receptor at 10 uM
[31] = molecular target: Voltage-gated inwardly rectifying potassium channel KCNH2 (Homo sapiens, UniProt Q12809); assay: Inhibition of human ERG by electrophysiology assay
[32] = Lipophilicity, log D of compound at pH 7.4; assay type: physicochemical; settings: buffer
[33] = molecular target: Metabotropic glutamate receptor 1 (Homo sapiens) (UniProt Q13255); assay: Positive allosteric modulation of mGlu1 receptor at 10 uM
[34] = molecular target: T3, Melatonin receptor type 1A; assay: Agonist activity at MT1 relative to control; assay type: functional
[35] = molecular target: Metabotropic glutamate receptor 3 (Homo sapiens) (UniProt Q14832); assay: Positive allosteric modulation of mGlu3 receptor at 10 uM
[36] = molecular target: Metabotropic glutamate receptor 5 (Homo sapiens) (UniProt P41594); assay: Agonist activity at mGlu5 receptor at 10 uM; assay type: functional
[37] = molecular target: Metabotropic glutamate receptor 8 (Homo sapiens) (UniProt O00222); assay: Positive allosteric modulation of mGlu8 receptor at 10 uM
[38] = molecular target: Metabotropic glutamate receptor 7 (Homo sapiens) (UniProt Q14831); assay: Negative allosteric modulation of mGlu7 receptor at 10 uM
[39] = molecular target: Metabotropic glutamate receptor 3 (Homo sapiens) (UniProt Q14832); assay: Agonist activity at mGlu3 receptor at 10 uM; assay type: functional
[40] = molecular target: Metabotropic glutamate receptor 3 (Homo sapiens) (UniProt Q14832); assay: Negative allosteric modulation of mGlu3 receptor at 10 uM
Plasma [41] = assay: Plasma concentration in rat at 30 mg/kg, sc; assay type: ADME, organism-based; set-up: dose 30 mg/kg, route subcutaneous; settings: in vivo
[42] = molecular target: 5-hydroxytryptamine receptor 2B (Homo sapiens, UniProt P41595); assay: Inhibition of 5HT2B

Structure (SMILES): c1ccc(-n2cc(-c3ccncc3)cn2)cc1
- EC50 [1]: > 10000 nM
- Emax [2]: 39%

Structure (SMILES): Fc1cccc(-n2cc(-c3ccnc4ccccc34)cn2)c1
- EC50 [1]: 3100 nM
- Emax [2]: 92%

Structure (SMILES): c1ccc(-n2cc(-c3ccnc4cc(OCCCN5CCCCC5)ccc34)cn2)cc1
- EC50 [1]: > 10000 nM
- Emax [2]: 23%

Structure (SMILES): Cc1nccc(-c2cnn(-c3ccccc3)c2)c1C
- EC50 [1]: 1200 nM
- Emax [2]: 40%

Structure (SMILES): CN(C)C(=O)Oc1ccc2c(-c3cnn(-c4ccccc4)c3)ccnc2c1
- EC50 [1]: 950 nM
- Emax [2]: 82%

Structure (SMILES): c1ccc(-n2cc(-c3ccnc4[nH]ccc34)cn2)cc1
- EC50 [1]: 2700 nM
- Emax [2]: 47%

Structure (SMILES): c1csc(-n2cc(-c3ccnc4ccccc34)cn2)c1
- EC50 [1]: 4300 nM
- Emax [2]: 52%

Structure (SMILES): c1ccc(-n2cc(-c3ccnc4cc(OCCN5CCCC5)ccc34)cn2)cc1
- EC50 [1]: > 10000 nM
- Emax [2]: 9%

Structure (SMILES): Oc1ccc2c(-c3cnn(-c4ccccc4)c3)ccnc2c1
- EC50 [1]: > 10000 nM
- Emax [2]: 4%

Structure (SMILES): CCNC(=O)Oc1ccc2c(-c3cnn(-c4ccccc4)c3)ccnc2c1
- EC50 [1]: 10000 nM
- Emax [2]: 86%

Structure (SMILES): c1ccc(-n2cc(-c3c[nH]c4ccccc34)cn2)cc1
- EC50 [1]: 2500 nM
- Emax [2]: 44%

Structure (SMILES): c1ccc(-n2cc(-c3ccnc4cc(OCCN5CCOCC5)ccc34)cn2)cc1
- EC50 [1]: 1800 nM
- Emax [2]: 39%

More lines, main results first:

- EC50 [1]: 840 nM
- Emax [2]: 150%
Structure (SMILES): Cc1nn(-c2ccccc2)c(C)c1-c1ccnc2ccccc12

- EC50 [1]: 540 nM
- Emax [2]: 93%
Structure (SMILES): CCOc1ccc2c(-c3cnn(-c4ccccc4)c3)ccnc2c1

- EC50 [1]: 550 nM
- Emax [2]: 140%
Structure (SMILES): FC(F)(F)c1ccc2c(-c3cnn(-c4ccccc4)c3)ccnc2c1

- EC50 [1]: 1100 nM
- Emax [2]: 70%
Structure (SMILES): Fc1ccccc1-n1cc(-c2ccnc3ccccc23)cn1

- EC50 [1]: 500 nM
- Emax [2]: 120%
Structure (SMILES): O=C(Oc1ccc2c(-c3cnn(-c4ccccc4)c3)ccnc2c1)N1CCCC1

- inhibition at 5 µM (CYP2B6): 61%
- Drug uptake (Cerebrospinal fluid [3]): < 1 ng/mL
- inhibition at 5 µM (CYP2C9): 88%
- Cp (Plasma [4]): 23 ng/mL
- fraction unbound [5]: 0.012
- inhibition at 5 µM (CYP3A4): 35%
- solubility kinetic [6]: 1.4 µM (≈ 0.541 µg/mL)
- EC50 [1]: 390 nM
- inhibition at 5 µM (CYP2C19): 83%
- Fu (Brain [7]): 0.4%
- Ratio [8]: 11.2
- Kp [9]: 1.5
- Drug uptake (Brain [10]): 35 ng/g
- CL (Rattus norvegicus): 46 mL/min
- Emax [2]: 120%
- solubility kinetic [11]: 190 µM (≈ 73.4 µg/mL)
Structure (SMILES): CCN(CC)C(=O)Oc1ccc2c(-c3cnn(-c4ccccc4)c3)ccnc2c1

- EC50 [1]: 190 nM
- Emax [2]: 130%
Structure (SMILES): O=C(Oc1ccc2c(-c3cnn(-c4ccccc4)c3)ccnc2c1)N1CCCCC1

- EC50 [1]: 250 nM
- Emax [2]: 88%
Structure (SMILES): COCCCOc1ccc2c(-c3cnn(-c4ccccc4)c3)ccnc2c1

- inhibition at 5 µM (CYP2B6): 56%
- inhibition at 5 µM (CYP2C9): 48%
- Activity [12]: inactive
- fraction unbound [5]: 0.004
- Activity [13]: inactive
- Activity [14]: inactive
- Drug uptake (Cerebrospinal fluid [15]): 72 ng/mL
- Activity [16]: inactive
- Activity [17]: inactive
- inhibition at 5 µM (CYP3A4): 38%
- solubility kinetic [6]: 21 µM (≈ 5.7 µg/mL)
- Kp [18]: 2.7
- EC50 [1]: 220 nM
- Drug uptake (Brain [19]): 5055 ng/g
- Activity [20]: inactive
- IC50 [21]: 3100 nM
- Activity [22]: inactive
- Activity [23]: inactive
- Activity [24]: inactive
- EC50 [25]: 920 nM
- Activity [26]: inactive
- Activity [27]: inactive
- Fu (Brain [7]): 0.7%
- Ratio [8]: 12
- Activity [28]: inactive
- Activity [29]: inactive
- Activity [30]: inactive
- logD [32]: 3.9
- Activity [33]: inactive
- Emax [34]: 84%
- CL (Rattus norvegicus): 550 mL/min
- Activity [35]: inactive
- Emax [2]: 105%
- Activity [36]: inactive
- Activity [37]: inactive
- Activity [38]: inactive
- Activity [39]: inactive
- Activity [40]: inactive
- Cp (Plasma [41]): 1886 ng/mL
- IC50 [42]: 1600 nM
- solubility kinetic [11]: 150 µM (≈ 40.7 µg/mL)
Structure (SMILES): c1ccc(-n2cc(-c3ccnc4ccccc34)cn2)cc1
- IC50 [31]: 2500 nM

- inhibition at 5 µM (CYP2B6): 35%
- Drug uptake (Cerebrospinal fluid [3]): < 1 ng/mL
- Cp (Plasma [4]): 220 ng/mL
- fraction unbound [5]: 0.002
- inhibition at 5 µM (CYP3A4): 35%
- solubility kinetic [6]: 4.6 µM (≈ 1.39 µg/mL)
- EC50 [1]: 220 nM
- Fu (Brain [7]): 0.1%
- Kp [9]: 0.8
- Drug uptake (Brain [10]): 180 ng/g
- logD [32]: 5
- CL (Rattus norvegicus): 68 mL/min
- Emax [2]: 79%
- solubility kinetic [11]: 120 µM (≈ 36.2 µg/mL)
Structure (SMILES): COc1ccc2c(-c3cnn(-c4ccccc4)c3)ccnc2c1
